Test results as given in patent US8563559B2 (Rigel Pharmaceuticals, Inc., priority 2006, dated 2013).

Each compound was assayed against T1, Axl (Homo sapiens, UniProt P30530) (assay: Phospho-AKT in-cell Western assay (inhibition of Axl activity)). Settings: Table 1, formula (Ia); Hela cells, Axl antibody cross-linking stimulation, phospho-Akt chemiluminescence normalized to relative cell number.
T1 construct: endogenous in cells; host or cells: HeLa
T1 sequence (P30530 26-894): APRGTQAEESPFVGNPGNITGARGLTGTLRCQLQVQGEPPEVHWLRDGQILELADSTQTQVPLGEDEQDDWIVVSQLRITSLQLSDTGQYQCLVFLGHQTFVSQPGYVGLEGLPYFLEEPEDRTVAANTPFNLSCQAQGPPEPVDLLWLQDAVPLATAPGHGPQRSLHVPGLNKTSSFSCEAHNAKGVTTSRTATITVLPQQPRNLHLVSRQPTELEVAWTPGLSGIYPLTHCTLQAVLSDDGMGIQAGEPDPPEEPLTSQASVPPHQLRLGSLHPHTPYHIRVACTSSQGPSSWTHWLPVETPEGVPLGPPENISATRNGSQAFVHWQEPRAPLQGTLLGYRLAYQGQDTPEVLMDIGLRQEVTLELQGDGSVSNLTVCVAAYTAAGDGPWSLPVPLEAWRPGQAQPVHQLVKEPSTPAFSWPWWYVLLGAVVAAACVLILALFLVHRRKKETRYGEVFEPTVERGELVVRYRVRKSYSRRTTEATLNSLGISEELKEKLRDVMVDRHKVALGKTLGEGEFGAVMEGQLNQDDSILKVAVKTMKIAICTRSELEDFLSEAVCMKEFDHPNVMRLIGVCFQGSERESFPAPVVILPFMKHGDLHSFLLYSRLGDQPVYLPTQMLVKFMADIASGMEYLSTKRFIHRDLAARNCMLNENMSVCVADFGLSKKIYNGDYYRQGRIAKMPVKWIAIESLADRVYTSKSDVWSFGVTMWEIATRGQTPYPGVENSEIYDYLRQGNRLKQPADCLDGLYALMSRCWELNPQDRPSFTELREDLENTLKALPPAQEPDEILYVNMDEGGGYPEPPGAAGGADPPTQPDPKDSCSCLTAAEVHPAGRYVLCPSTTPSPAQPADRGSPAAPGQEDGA
Format: cell-based
Experimental: The compounds of the invention were tested in the following assay for their ability to inhibit Axl activity.
Phospho-AKT in-Cell Western Assay
• Cell culture plate: 96 well assay plate (Corning 3610), white, clear bottom, tissue-culture treated. • Cells: Hela cells. • Starvation medium: For Axl stimulation: 0.5% FCS (fetal calf serum) in DMEM, plus Axl/Fc (extracellular domain of AXL fused to immunoglobulin Fc region) (R&D, 154-AL) 500 ng/mL. • For EGF (epidermal growth factor) stimulation: 0.5% FCS in DMEM (Dulbecco's modified Eagles medium). • Poly-L-Lysine 0.01% solution (the working solution): 10 μg/ml, dilute In PBS (phosphate buffered saline). • Axl antibody cross-linking: • 1st: Mouse anti-Axl (R&D, MAB154). • 2nd: Biotin-SP-conjugated AffiniPure goat anti-mouse IgG (H+L) (Jackson ImmunoResearch #115-065-003). • Fixing buffer: 4% formaldehyde in PBS. • Wash buffer: 0.1% TritonX-100 in PBS. • Quenching buffer: 3% H2O2, 0.1% Azide in wash buffer, Azide and hydrogen peroxide 1(H2O2) are added fresh. • Blocking buffer: 5% BSA in TBST (tris buffered saline plus 0.1% Tween 20). • Primary antibody: Rabbit anti-human Phospho-Akt antibody (Cell Signaling 9271): 1×250 diluted in blocking buffer. • Secondary antibody: HRP (horse radish peroxidase)-conjugated Goat anti-Rabbit secondary, stock solution: Jackson ImmunoResearch (Goat anti-Rabbit HRP, #111-035-144) 1:1 diluted in glycerol, store at −20° C. The working solution: 1×2000 dilution of stock in blocking buffer. • Chemiluminescent working solution (Pierce, 37030): SuperSignal ELISA (enzyme linked immunosorbant assay) Pico Chemiluminescent substrate. • Crystal Violet solution: Stock: 2.5% Crystal violet in methanol, filtered and kept at ambient temperature. The working solution: dilute the stock 1:20 with PBS immediately before use. • 10% SDS: working solution: 5% SDS (sodium dodecylsulfate), diluted in PBS Methods: Day 1:
A 96 well TC (tissue culture treated) plate was coated with 10 μg/mL poly-L-Lysine at 37° C. for 30 min, washed twice with PBS, and air-dried for 5 minutes before cells were added. Hela cells were seeded at 10,000 cells/well and the cells were starved in 100 μL starvation medium containing Axl/Fc for 24 hrs.
The cells were pre-treated with test compounds by adding 100 μL of 2× test compound to the starvation medium on the cells. The cells were incubated at 37° C. for 1 hr before stimulation.
The cells were stimulated by Axl-antibody cross-linking as follows: A 5×1st/2nd Axl antibody mixture was made (37.5 μg/mL 1st/100 μg/mL 2nd) in starvation medium and nutated at 4° C. with thorough mixing for 1-2 hours for clustering. The resulting mix was warmed to 37° C. 50 μL of 5×Axl 1st/2nd of antibody cluster was added to the cells and the cells were incubated at 37° C. for 5 min.
After 5 minutes stimulation, the plate was flicked to remove medium and the plate was tapped onto paper towels. Formaldehyde (4.0% in PBS, 100 μL) was added to fix the cells and the cells were incubated at ambient temperature for 20 min without shaking.
The cells were washed with a plate washer buffer to remove the formaldehyde solution. The plate was flicked to removed excess wash buffer and tapped onto paper towels. Quenching buffer (100 μL) was added to each well and the cells were incubated at ambient temperature for 20 minutes without shaking.
The cells were washed with a plate washer buffer to remove the quenching buffer. Blocking buffer (100 μL) was added and the cells were incubated at ambient temperature for at least an hour with gentle shaking.
The cells were washed with a plate washer buffer and diluted primary antibody (50 μL) was added to each well (blocking buffer was added to the negative control wells instead). The plates were incubated overnight at 4° C. with gentle shaking.
The wash buffer was removed, diluted secondary antibody (100 μL) was added, and the cells were incubated at ambient temperature for 1 hour with gentle shaking. […]

SMILES | IC50 [nM]
CNC(=O)[C@H]1C[C@H]2C[C@H](C2(C)C)[C@@]1(C)Nc1nc(Nc2ccc(OCCN3CCCC3)cc2)ncc1Cl [Compound 1, (1R,2R,3S,5R)-2-(5-chloro-2-(4-(2-(pyrrolidin-1-yl)ethoxy)phenylamino)pyrimidin-4-ylamino)-N,2,6,6-tetramethylbicyclo[3.1.1]heptane-3-carboxamide] | < 1000
CNC(=O)[C@H]1C[C@H]2C[C@H](C2(C)C)[C@@]1(C)Nc1nc(Nc2ccc(N3CCOCC3)cc2)ncc1Cl [Compound 2, (1R,2R,3S,5R)-2-(5-chloro-2-(4-morpholinophenylamino)pyrimidin-4-ylamino)-N,2,6,6-tetramethylbicyclo[3.1.1]heptane-3-carboxamide] | 1000 to 10000
CNC(=O)[C@H]1C[C@H]2C[C@H](C2(C)C)[C@@]1(C)Nc1nc(Nc2ccc(OCCN3CCCC3)c(F)c2)ncc1Cl [Compound 3, (1R,2R,3S,5R)-2-(5-chloro-2-(3-fluoro-4-(2-(pyrrolidin-1-yl)ethoxy)phenylamino)pyrimidin-4-ylamino)-N,2,6,6-tetramethylbicyclo[3.1.1]heptane-3-carboxamide] | < 1000
CNC(=O)[C@H]1C[C@H]2C[C@H](C2(C)C)[C@@]1(C)Nc1nc(Nc2ccc(N3CCN(C)CC3)c(F)c2)ncc1Cl [Compound 4, (1R,2R,3S,5R)-2-(5-chloro-2-(3-fluoro-4-(4-methylpiperazin-1-yl)phenylamino)pyrimidin-4-ylamino)-N,2,6,6-tetramethylbicyclo[3.1.1]heptane-3-carboxamide] | < 1000
CNC(=O)[C@H]1C[C@H]2C[C@H](C2(C)C)[C@@]1(C)Nc1nc(Nc2ccc(N3CCN(C)CC3)c(Cl)c2)ncc1Cl [Compound 5, (1R,2R,3S,5R)-2-(5-chloro-2-(3-chloro-4-(4-methylpiperazin-1-yl)phenylamino)pyrimidin-4-ylamino)-N,2,6,6-tetramethylbicyclo[3.1.1]heptane-3-carboxamide] | < 1000
CNC(=O)[C@H]1C[C@H]2C[C@H](C2(C)C)[C@@]1(C)Nc1nc(Nc2ccc(OCC(C)(C)N3CCCC3)cc2)ncc1Cl [Compound 8, (1R,2R,3S,5R)-2-(5-chloro-2-(4-(2-methyl-2-(pyrrolidin-1-yl)propoxy)phenylamino)pyrimidin-4-ylamino)-N,2,6,6-tetramethylbicyclo[3.1.1]heptane-3-carboxamide] | < 1000
CNC(=O)[C@H]1C[C@H]2C[C@H](C2(C)C)[C@@]1(C)Nc1nc(Nc2ccc(OCCNC3CCCC3)cc2)ncc1Cl [Compound 9, (1R,2R,3S,5R)-2-(5-chloro-2-(4-(2-(cyclopentylamino)ethoxy)phenylamino)pyrimidin-4-ylamino)-N,2,6,6-tetramethylbicyclo[3.1.1]heptane-3-carboxamide] | < 1000
CNC(=O)[C@H]1C[C@H]2C[C@H](C2(C)C)[C@@]1(C)Nc1nc(Nc2ccc(C(=O)N3CCN(C4CCCCC4)CC3)cc2)ncc1Cl [Compound 10, (1R,2R,3S,5R)-2-(5-chloro-2-(4-(4-cyclohexylpiperazine-1-carbonyl)phenylamino)pyrimidin-4-ylamino)-N,2,6,6-tetramethylbicyclo[3.1.1]heptane-3-carboxamide] | < 1000
CNC(=O)[C@H]1C[C@H]2C[C@H](C2(C)C)[C@@]1(C)Nc1nc(Nc2ccc(N3CCN(c4ccc(F)cc4)CC3)cc2)ncc1Cl [Compound 11, (1R,2R,3S,5R)-2-(5-chloro-2-(4-(4-(4-fluorophenyl)piperazin-1-yl)phenylamino)pyrimidin-4-ylamino)-N,2,6,6-tetramethylbicyclo[3.1.1]heptane-3-carboxamide] | > 20000
CNC(=O)[C@H]1C[C@H]2C[C@H](C2(C)C)[C@@]1(C)Nc1nc(Nc2ccc(C3CCN(C)CC3)cc2)ncc1Cl [Compound 12, (1R,2R,3S,5R)-2-(5-chloro-2-(4-(1-methylpiperidin-4-yl)phenylamino)pyrimidin-4-ylamino)-N,2,6,6-tetramethylbicyclo[3.1.1]heptane-3-carboxamide] | < 1000
CNC(=O)[C@H]1C[C@H]2C[C@H](C2(C)C)[C@@]1(C)Nc1nc(Nc2ccc(N3CCN(C(C)=O)CC3)cc2)ncc1Cl [Compound 13, (1R,2R,3S,5R)-2-(2-(4-(4-acetylpiperazin-1-yl)phenylamino)-5-chloropyrimidin-4-ylamino)-N,2,6,6-tetramethylbicyclo[3.1.1]heptane-3-carboxamide] | 1000 to 10000
CNC(=O)[C@H]1C[C@H]2C[C@H](C2(C)C)[C@@]1(C)Nc1nc(Nc2ccc(C(=O)N3CCN(C)CC3)c(Cl)c2)ncc1Cl [Compound 14] | < 1000
CCN1CCN(c2cc(Nc3ncc(Cl)c(N[C@@]4(C)[C@@H](C(=O)NC)C[C@H]5C[C@@H]4C5(C)C)n3)ccc2Cl)CC1 [Compound 15, (1R,2R,3S,5R)-2-(5-chloro-2-(4-chloro-3-(4-ethylpiperazin-1-yl)phenylamino)pyrimidin-4-ylamino)-N,2,6,6-tetramethylbicyclo[3.1.1]heptane-3-carboxamide] | 1000 to 10000
CNC(=O)[C@H]1C[C@H]2C[C@H](C2(C)C)[C@@]1(C)Nc1nc(Nc2ccc(Cl)c(N3CCN(C(C)=O)CC3)c2)ncc1Cl [Compound 16, (1R,2R,3S,5R)-2-(2-(3-(4-acetylpiperazin-1-yl)-4-chlorophenylamino)-5-chloropyrimidin-4-ylamino)-N,2,6,6-tetramethylbicyclo[3.1.1]heptane-3-carboxamide] | 1000 to 10000
CN1CCN(c2ccc(Nc3ncc(Cl)c(N[C@@]4(CCOCc5ccccc5)[C@@H](C(N)=O)C[C@H]5C[C@@H]4C5(C)C)n3)cc2F)CC1 [Compound 17, (1R,2R,3S,5R)-2-(2-(benzyloxy)ethyl)-2-(5-chloro-2-(3-fluoro-4-(4-methylpiperazin-1-yl)phenylamino)pyrimidin-4-ylamino)-6,6-dimethylbicyclo[3.1.1]heptane-3-carboxamide] | > 20000
CNC(=O)[C@H]1C[C@H]2C[C@H](C2(C)C)[C@@]1(C)Nc1nc(Nc2ccc(Cl)c(N3CCN(C(=O)OC)CC3)c2)ncc1Cl [Compound 18, (1R,2R,3S,5R)-2-(2-(3-(4-(methoxycarbonyl)piperazin-1-yl)-4-chlorophenylamino)-5-chloropyrimidin-4-ylamino)-N,2,6,6-tetramethylbicyclo[3.1.1]heptane-3-carboxamide] | > 20000
